Laboratory results taken from patent US20120277257A1, “Methods of Treating Diseases, Pharmaceutical Compositions, and Pharmaceutical Dosage Forms” (MYREXIS, INC., priority 2009, published 2012).

Assay: in vivo
Details: female, Hsd:athymic nude-Foxn1^nu, mouse, po
Method: The efficacy of Compound 1 was compared to that of SNX-5422 (Serenex, Pfizer, Inc.) on the growth of NCI-N87 (Her2+) human gastric cancer cells as a xenograft in athymic nude mice model. Animals were dosed with either 200 mg/kg of Compound 1 on days 1 through 21 or 40 mg/kg of SNX-5422 thrice weekly for three weeks. Tumor volumes and body weights were determined from Days 1 to 39.
Five million NCI-N87 cells were implanted subcutaneously in the right flank of female nude mice (Hsd:athymic nude-Foxn1^nu). When the median tumor volume was approximately 123 mm^3, mice were randomized into three cohorts of ten animals. One cohort was dosed orally with vehicle, one cohort was dosed orally with Compound 1 (200 mg/kg) formulated in vehicle, and one cohort was dosed orally with SNX-5422 (40 mg/kg) formulated in dimethylacetamide/polyethylene glycol 300. Vehicle and Compound 1 were administered on days 1-21 and SNX-5422 was administered thrice weekly on Days 1, 3, 5, 8, 10, 12, 15, 17 and 19. The mice were observed daily for mortality and signs of toxicity.

C[C@H](O)C(=O)N1CCC(CCn2c(Sc3cc4c(cc3Br)OCO4)nc3c(N)ncnc32)CC1 [Compound 1, (2S)-1-[4-(2-{6-amino-8-[(6-bromo-1,3-benzodioxol-5-yl)thio]-9H-purin-9-yl}ethyl)piperidin-1-yl]-1-oxopropan-2-ol]
MTD: 200 mg/kg
